The results in this text go back to patent US11630102B2, “Composition and method for modulating fibroblast growth factor receptor 3 activation” (ACADEMIA SINICA, priority 2017, dated 2023).

“Also recorded” adds a separate entry of the source. Read-outs that look alike come from different tables or passages of the source.

The target of data set [1] is T1, TDI FGFR3 (Homo sapiens, UniProt P22607, Y373C). The data set is described as follows: cell-based translocation assay (ring spot count, high-content imaging). The following applies: for inhibition of FGFR3 activation (in words): cells stably expressing SH2(SH2B)-RrGFP and TDI FGFR3.
Method: (§2) PKC412 was prepared as a 6% (w/w) stock in DMSO. Live-cell imaging was performed at 37° C. under humidified conditions in a 5% CO2 incubator.
(§3) For high-content screening, all steps of sample-plate preparation, including compound treatment, fixation and plate washing, were fully automated and were performed using a Bio-Tek EL405uv system (Bio-Tek Instruments, Inc., Winooski, Vt., USA). U2OS cells stably expressing TDI FGFR3 and SI-12-RrGFP were seeded at a density of 4×10^3 cells/well in black 96-well Packard Viewplates, incubated overnight in complete medium at 37° C. in a CO2 incubator, and then transferred to 100 μl serum-free medium containing PKC412 or plant extract. The final DMSO concentration was 1%. After incubating for 1 hour at 37° C. in a CO2 incubator, cells were fixed with 4.5% formaldehyde and cell nuclei were labeled with a 2 μg/ml Hoechst stain solution (Sigma-Aldrich).
(§4) Cell images were automatically obtained using an ArrayScan VTI HCS Reader (Cellomics, Pittsburgh, Pa., USA). Filter sets appropriate for detecting the two fluorophores were used, and a 20×0.4 numerical aperture microscope objective was used for imaging. The Compartmental Analysis BioApplication (Cellomics) was used to analyze the images after optimization of the application's protocol settings. For these analyses, the Compartmental Analysis used the Hoechst-labeled nuclei to identify individual cells, and the nucleus (Circle) and cytoplasmic area (Ring) of the cells were defined by parameter settings in the software. The GFP spots in the Ring region were defined and the spot numbers (Ring Spot Count) and spot intensity (Ring Spot Intensity) were quantified by the software.
A short description of data set [2]: solubility of Pa derivatives compared to Pa. The class given is physicochemical.
The target of data set [3] is T1, TDI FGFR3.
Method: as §2, §3, §4
Data set [4] relates to KMS-11 cells. In words: KMS-11 cell proliferation assay (WST-1). It counts as cell-based, human. The conditions noted are these: FGFR3-dependent growth (Y373C FGFR3). The method, then:
Cell proliferation was determined by a colorimetric assay of cell viability based on the cleavage of the tetrazolium salt WST-1 (Roche) by mitochondrial dehydrogenases. Cells were grown in serum-free conditions for 24 h and then were seeded in 96-well plates at a density of 50,000 cells/well in RPMI. Cells were incubated with 1 nM aFGF and 50 μg/ml heparin and various doses of plant extracts in 200 μl RPMI at a final concentration of 1% DMSO. Plates were incubated for 72 h at 37° C., 5% CO2. The WST-1 assay was performed according to the manufacturer's instructions. The absorbance of the formazan dye formed, which correlates with the number of metabolically active cells in the culture, was measured at 450 nm and 690 nm 1 h after adding the reagent. Each experimental condition was performed in triplicate.
The effects of hit 4, hit 4-1, and hit 4-2 were examined on the growth of human myeloma cell line KMS-11 […] expressing TDI FGFR3. KMS-11 cells were stimulated with aFGF/heparin and incubated with DMSO negative control, PKC412 positive control, or 10 μg/ml and 100 μg/ml doses of each tested plant extract. Cell growth was measured as described above.
Fractions were analyzed for their ability to inhibit the FGFR3 activity-dependent growth of human myeloma cell line KMS-11 as described above in Example 3.
On the technique in general: Formazan colour is commonly taken as a measure of viable cells.

The test system of data set [5] is FGFR3^ACH/ACH mice. The data set is described as follows: treatment of achondroplasia mice. The conditions noted are these: 0.09 mg/g/mouse for 7 weeks from 7 days of age. The class given is in vivo. The method, then: Femurs of mice were dissected and the flesh was removed. The lengths of the femurs were measured using a millimetre-scale calliper ruler.
(§1) FGFR3^ACH/ACH mice beginning at 7 days of age were treated once-daily with 0.2 mg/g/mouse plant active fractions F4 and F4-IS11 by gavage in 200 μl PBS for 4 or 7 weeks. Control wild type littermates (WT) and FGFR3^ACH/ACH mice were treated with vehicle control. In additional studies, mice were treated with 0.09 mg/g/mouse purified Pa or vehicle control in a similar manner. Body weight and body length were measured weekly.
Skeletons were analyzed by […] (Skyscan 1076 system, Bruker, Brussels, Belgium) as described above.

Data set [6] has as its system WT mice. In words: treatment of wild-type mice with Pa. It counts as in vivo. The conditions noted are these: 0.09 mg/g/mouse for 7 weeks from 7 days of age. The protocol: as §1
As mentioned above, Pa was identified as an active compound in the A. viridis extract by means of the method set forth above in Example 4. WT and FGFR3^ACH mice at 7 days of age were treated with vehicle (DMSO) or with 0.09 mg/g/mouse Pa for 7 weeks. The body weight of treated mice was measured weekly.

T1 sequence (P22607 23-806 Y373C): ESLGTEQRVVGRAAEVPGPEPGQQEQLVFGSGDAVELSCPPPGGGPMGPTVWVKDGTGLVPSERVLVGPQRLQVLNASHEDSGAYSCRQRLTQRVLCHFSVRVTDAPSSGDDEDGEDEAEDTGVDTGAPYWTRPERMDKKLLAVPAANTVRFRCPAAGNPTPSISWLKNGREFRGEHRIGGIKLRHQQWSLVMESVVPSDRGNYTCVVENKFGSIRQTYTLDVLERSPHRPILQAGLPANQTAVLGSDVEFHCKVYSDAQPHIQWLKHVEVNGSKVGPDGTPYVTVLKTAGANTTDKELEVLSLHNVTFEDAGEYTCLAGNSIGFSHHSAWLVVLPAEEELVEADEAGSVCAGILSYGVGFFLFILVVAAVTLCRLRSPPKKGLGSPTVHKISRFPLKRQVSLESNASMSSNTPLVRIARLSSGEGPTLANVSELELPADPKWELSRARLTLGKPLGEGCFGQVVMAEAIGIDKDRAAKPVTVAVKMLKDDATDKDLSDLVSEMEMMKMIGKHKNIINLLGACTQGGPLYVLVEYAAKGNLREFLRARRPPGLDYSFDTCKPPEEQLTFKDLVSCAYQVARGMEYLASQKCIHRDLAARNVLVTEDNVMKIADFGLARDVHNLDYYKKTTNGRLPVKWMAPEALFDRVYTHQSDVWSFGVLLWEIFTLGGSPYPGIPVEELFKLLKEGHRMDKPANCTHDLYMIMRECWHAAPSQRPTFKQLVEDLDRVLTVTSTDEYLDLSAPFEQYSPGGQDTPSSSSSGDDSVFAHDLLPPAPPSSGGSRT

Consider chlorophyllin A [reference compound], for which the “inhibition of FGFR3 activation (in words)” value (shortened to “inhibition … (in words)”) in data set [1] was “had FGFR3 inhibition activity”.

For the compound Na-pheophorbide a [NA-Pa], the “solubility as compared to Pa” value in data set [2] was “enhanced solubility”. In addition, the “inhibition … (in words)” value in data set [1] is “comparable FGFR3 inhibition activities”.

Regarding Pyropheophorbide a [PyroPa], in data set [1], the “inhibition … (in words)” value is listed as “inhibit FGFR3 activation; also recorded: stronger than any of the tested photosensitizers”.

On to “pyropheophorbide-a methyl ester [reference compound]”, for which the “inhibition … (in words)” value in data set [1] is listed as “had FGFR3 inhibition activity”.

With `CO[C@@H]1[C@H](N(C)C(=O)c2ccccc2)C[C@H]2O[C@]1(C)n1c3ccccc3c3c4c(c5c6ccccc6n2c5c31)C(=O)NC4` [PKC412, reference compound], the “time to disappearance of punctate GFP signals after treatment” value in data set [1] (SH2(SH2B)-RrGFP and TDI FGFR3 expressing cells, not seen with DMSO) is at most 1 h.

As for `Oc1cccc(-c2c3nc(c(-c4cccc(O)c4)c4ccc([nH]4)c(-c4cccc(O)c4)c4nc(c(-c5cccc(O)c5)c5ccc2[nH]5)CC4)C=C3)c1` [temoporfin], in data set [3], the “inhibition … (in words)” value is reported as “had FGFR3 inhibition activity”.

Turning to `NCC(=O)CCC(=O)O` [5-aminolevulinic acid, reference compound], the “inhibition … (in words)” value in data set [1] was “did not”.

Consider pheophorbide a [Pa], for which the “inhibition of KMS-11 cell proliferation” value in data set [4] was “inhibited FGFR3-dependent cell proliferation”. The “body weight vs DMSO-treated mice” value in data set [5] and in data set [6] was “increased body weight” throughout. Besides, the “inhibition … (in words)” value in data set [1] is on record as “inhibit FGFR3 activation”.

As for HCl-N-pheophorbide a [HCl-N-Pa], in data set [2], the “solubility as compared to Pa” value is “enhanced solubility”. In data set [1], the “inhibition … (in words)” value is given as “comparable FGFR3 inhibition activities”.
